What was measured:
[1] = test system: dural protein extravasation induced by electrical stimulation of the trigeminal ganglion; experiment: Plasma protein extravasation (PPE) / dural extravasation model of migraine; assay type: in vivo; details: rat
Source text: 5-HT7 antagonists are expected to have efficacy in the prophylactic (and potentially acute) treatment of migraine by: • 1) Preventing serotonin-induced vasodilatation of cranial blood vessels (Matthys, A., et al., Role of the 5-HT7 receptor in the central nervous system: from current status to future perspectives. Molecular Neurobiology, 2011; Leopoldo, M., et al., Serotonin 5-HT7 receptor agents: Structure-activity relationships and potential therapeutic applications in central nervous system disorders. Pharmacology & Therapeutics, 2011, 129, 120-148; Hedlund, P. B., The 5-HT7 receptor and disorders of the nervous system: an overview. Psychopharmacology, 2009, 206, 345-354). Contrary to the triptans, 5-HT7 antagonists would only reverse a pre-existing vasodilatation, without producing vasoconstriction by themselves. This would make 5-HT7 antagonists, in contrast to triptans, compatible with chronic use and therefore with prophylactic treatment. • 2) By inhibiting peripheral and central sensitization. […] In this rat model of migraine, dural protein extravasation is induced by electrical stimulation of the trigeminal ganglion. […]
The level of fluorescence in dura maters ipsi- and contra-lateral to the trigeminal ganglia stimulation is quantified with a digital camera (Hamamatsu C4742-98 filter for FITC objective Nikon 2.8×) and analysis software (WIT5.3, Logical vision).

CGRP release = details: after electrical stimulation of the trigeminal ganglion; cited from earlier work

In the case of `CC1CCN(CC[C@H]2CCCN2S(=O)(=O)c2cccc(O)c2)CC1` [SB-269970], the “human coronary artery contraction” value (human coronary artery) is given as “does not induce human coronary artery contraction”, the “inhibition of neurogenic inflammation / reduction of protein extravasation” value [1] is given as “Inhibition of neurogenic inflammation” and the “release of CGRP” value (CGRP release) is given as “inhibits the release of CGRP”.

From patent US9067930B2, “2-oxo-piperidinyl derivatives” (UCB Pharma, S.A., priority 2011, dated 2015)
